The data set in a line: Solubility of the compound of Formula (I) in aqueous media without surfactant. The data set is classed as physicochemical. Particulars: aqueous buffer; hydrochloric acid solution, buffer, and water without surfactant, 37° C., pH 1.0˜9.0. As to the method:
The very low solubility limits its use in the development as a drug candidate. Chinese patent application 202010105909.9 reports a semi-solid capsule technology that can substantially increase the dissolution of the compound shown in Formula (I), but the capsule needs to be stored in a cool place below room temperature, not exceeding 15° C., specifically in a closed container at 2 to 8° C.

A word on the solubility: it is the dissolved amount per volume that the medium holds. For `Cc1cc(OC[P@@]2(=O)OCC[C@@H](c3cccc(Cl)c3)O2)cc(C)c1Cc1ccc(O)c(C(C)C)c1` [Formula (I) compound], the solubility is under 0.5 ng/mL.

The values are drawn from US11752161B2, “Pharmaceutical compositions, method of making and method of using thereof” (Gannex Pharma Co., Ltd., priority 2020, dated 2023).
